Laboratory results: patent US8268781B2
Read-outs that look alike come from different tables or passages of the source.

Experiment: Ex vivo bio-distribution studies
Details: In-111 labeled, 555 kBq tail vein, mean of 4 mice; for tissue uptake at 1 h / tissue uptake at 4 h / tissue uptake at 24 h: mouse, iv, total radioactivity; for tissue uptake at 1 h: 1 h p.i.
Experimental: The in vivo bio-distribution can, for example, be shown in rodents such as hairless mice. For this purpose […] CHO cells are injected into hairless mice. After approx. 3 to 5 weeks tumors approx. 300 mg in size had grown.
1, 4 und 24 h p.i. all the mice are killed and their organs removed.
The uptake of radioactivity is measured and the organs are weighed. The % of injected dose program of organ weight is calculated.
Mean value from the bio-distribution with 4 mice pro group in % i.D./g Stadev: standard deviation.

Uptake in Blood (4 h p.i.): 0.00 % i.D./g
Uptake in Muscle (4 h p.i.): 0.00 % i.D./g
Uptake in Blood (24 h p.i.): 0.00 % i.D./g
Uptake in Heart (24 h p.i.): 0.00 % i.D./g
Uptake in Muscle (24 h p.i.): 0.00 % i.D./g
tissue uptake at 1 h (hairless mice, pancreas, read-out: Uptake in Pancreas): 0.58 %ID/g
tissue uptake at 4 h (hairless mice, pancreas, 4 h p.i., read-out: Uptake in Pancreas): 0.62 %ID/g
tissue uptake at 1 h (hairless mice, spleen, read-out: Uptake in Spleen): 0.02 %ID/g
tissue uptake at 4 h (hairless mice, spleen, 4 h p.i., read-out: Uptake in Spleen): 0.01 %ID/g
tissue uptake at 24 h (hairless mice, spleen, 24 h p.i., read-out: Uptake in Spleen): 0.01 %ID/g
tissue uptake at 1 h (hairless mice, stomach, read-out: Uptake in Stomach): 0.14 %ID/g
tissue uptake at 4 h (hairless mice, stomach, 4 h p.i., read-out: Uptake in Stomach): 0.13 %ID/g
tissue uptake at 24 h (hairless mice, stomach, 24 h p.i., read-out: Uptake in Stomach): 0.07 %ID/g
tissue uptake at 24 h (hairless, GLP-1 receptor negative tumor, 24 h p.i., read-out: Uptake in Tumor− (GLP-1 receptor negative tumor)): 0.01 %ID/g
tissue uptake at 1 h (hairless, GLP-1 receptor positive tumor, read-out: Uptake in Tumor+ (GLP-1 receptor positive tumor)): 0.42 %ID/g
tissue uptake at 4 h (hairless, GLP-1 receptor positive tumor, 4 h p.i., read-out: Uptake in Tumor+ (GLP-1 receptor positive tumor)): 0.31 %ID/g
tissue uptake at 24 h (hairless, GLP-1 receptor positive tumor, 24 h p.i., read-out: Uptake in Tumor+ (GLP-1 receptor positive tumor)): 0.2 %ID/g
tissue uptake at 1 h (hairless, blood, read-out: Uptake in Blood): 0.01 %ID/g
tissue uptake at 1 h (hairless, liver, read-out: Uptake in Liver): 0.03 %ID/g
tissue uptake at 4 h (hairless, liver, 4 h p.i., read-out: Uptake in Liver): 0.01 %ID/g
tissue uptake at 24 h (hairless, liver, 24 h p.i., read-out: Uptake in Liver): 0.01 %ID/g
tissue uptake at 1 h (GLP-1 receptor negative tumor, read-out: Uptake in Tumor− (GLP-1 receptor negative tumor)): 0.03 %ID/g
tissue uptake at 4 h (GLP-1 receptor negative tumor, 4 h p.i., read-out: Uptake in Tumor− (GLP-1 receptor negative tumor)): 0.02 %ID/g
tissue uptake at 1 h (bones, read-out: Uptake in Bones): 0.02 %ID/g
tissue uptake at 4 h (bones, 4 h p.i., read-out: Uptake in Bones): 0.01 %ID/g
tissue uptake at 24 h (bones, 24 h p.i., read-out: Uptake in Bones): 0.01 %ID/g
tissue uptake at 1 h (heart, read-out: Uptake in Heart): 0.02 %ID/g
tissue uptake at 4 h (heart, 4 h p.i., read-out: Uptake in Heart): 0.01 %ID/g
tissue uptake at 1 h (intestine, read-out: Uptake in Intestine): 0.12 %ID/g
tissue uptake at 4 h (intestine, 4 h p.i., read-out: Uptake in Intestine): 0.07 %ID/g
tissue uptake at 24 h (intestine, 24 h p.i., read-out: Uptake in Intestine): 0.04 %ID/g
tissue uptake at 1 h (kidneys, read-out: Uptake in Kidneys): 7.9 %ID/g
tissue uptake at 4 h (kidneys, 4 h p.i., read-out: Uptake in Kidneys): 7.41 %ID/g
tissue uptake at 24 h (kidneys, 24 h p.i., read-out: Uptake in Kidneys): 4.85 %ID/g
tissue uptake at 1 h (lungs, read-out: Uptake in Lungs): 0.8 %ID/g
tissue uptake at 4 h (lungs, 4 h p.i., read-out: Uptake in Lungs): 0.36 %ID/g
tissue uptake at 24 h (lungs, 24 h p.i., read-out: Uptake in Lungs): 0.22 %ID/g
tissue uptake at 1 h (muscle, read-out: Uptake in Muscle): 0.01 %ID/g
tissue uptake at 24 h (pancreas, 24 h p.i., read-out: Uptake in Pancreas): 0.37 %ID/g
Compound: CC[C@H](C)[C@H](NC(=O)[C@H](Cc1ccccc1)NC(=O)[C@H](CCC(=O)O)NC(=O)[C@H](CCCCN)NC(=O)[C@H](C)NC(=O)[C@H](C)NC(=O)[C@H](CCC(N)=O)NC(=O)CNC(=O)[C@H](CCC(=O)O)NC(=O)[C@H](CC(C)C)NC(=O)[C@H](Cc1ccc(O)cc1)NC(=O)[C@H](CO)NC(=O)[C@H](CO)NC(=O)[C@@H](NC(=O)[C@H](CC(=O)O)NC(=O)[C@H](CO)NC(=O)[C@@H](NC(=O)[C@H](Cc1ccccc1)NC(=O)[C@@H](NC(=O)CNC(=O)[C@H](CCC(=O)O)NC(=O)[C@H](C)NC(=O)[C@@H](N)Cc1c[nH]cn1)[C@@H](C)O)[C@@H](C)O)C(C)C)C(=O)N[C@@H](C)C(=O)N[C@@H](Cc1c[nH]c2ccccc12)C(=O)N[C@@H](CC(C)C)C(=O)N[C@H](C(=O)N[C@@H](CCCCN)C(=O)NCC(=O)N[C@@H](CCCNC(=N)N)C(=O)N[C@@H](CCCCNC(=O)CN(CCN(CCN(CC(=O)O)CC(=O)O)CC(=O)O)CC(=O)O)C(N)=O)C(C)C [MC10, (DTPA-Lys^37) GLP1 (7-36) amide]
